Assays:
duck salad = assay: Test B flood test duck salad; assay type: in vivo, Heteranthera limosa
Outline: (§1)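 Read-out is a visual response score from 0 (no effect) to 10 (complete control), assigned by comparison with untreated controls. Treatment was applied at the 2-leaf stage, and plants stayed in the greenhouse for twelve to sixteen days before scoring.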

surinam grass = assay: Test B pre/postemergence surinam grass; assay type: in vivo, Brachiaria decumbens
Outline: (§2)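 Test chemicals in a non-phytotoxic solvent mixture with surfactant were sprayed preemergence onto planted seeds and postemergence onto plants 2 to 18 cm tall (1- to 4-leaf stage). After twelve to sixteen days in a greenhouse, injury was visually rated against untreated controls from 0 (no effect) to 10 (complete control).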

morningglory = assay: Test B pre/postemergence morningglory; assay type: in vivo, Ipomoea hederacea
Outline: as §2

blackgrass = assay: Test B pre/postemergence blackgrass; assay type: in vivo, Alopecurus myosuroides
Outline: as §2

crabgrass = assay: Test B pre/postemergence crabgrass; assay type: in vivo, Digitaria sanguinalis
Outline: as §2

smallflower flatsedge = assay: Test B flood test smallflower flatsedge; assay type: in vivo, Cyperus difformis
Outline: as §1

wild oat = assay: Test B pre/postemergence wild oat; assay type: in vivo, Avena fatua; settings: for Plant response rating, Wild oats: Rate 250 g/ha
Outline: as §2

giant foxtail = assay: Test B pre/postemergence giant foxtail; assay type: in vivo, Setaria faberii
Outline: as §2

bamyardgrass = assay: Test B flood test barnyardgrass; assay type: in vivo, Echinochloa crus-galli
Outline: as §1

cocklebur = assay: Test B pre/postemergence cocklebur; assay type: in vivo, Xanthium strumarium
Outline: as §2

soybean = assay: Test B pre/postemergence soybean; assay type: in vivo, Glycine max
Outline: as §2

rice = assay: Test B flood test rice; assay type: in vivo, Oryza sativa
Outline: as §1

velvetleaf = assay: Test B pre/postemergence velvetleaf; assay type: in vivo, Abutilon theophrasti; settings: for Plant response rating, Velvetleaf: Rate 250 g/ha
Outline: as §2

corn = assay: Test B pre/postemergence corn; assay type: in vivo, Zea mays
Outline: as §2

bedstraw = assay: Test B pre/postemergence bedstraw; assay type: in vivo, Galium aparine
Outline: as §2

purple nutsedge = assay: Test B pre/postemergence purple nutsedge; assay type: in vivo, Cyperus rotundus
Outline: as §2

wheat = assay: Test B pre/postemergence wheat; assay type: in vivo, Triticum aestivum; settings: for Plant response rating, Wheat: Rate 250 g/ha
Outline: as §2

[1] = Rate 250 g/ha, headed Pre-emergence (flood test species), scale 0 to 10 (0 no effect, 10 complete control)
[2] = Rate 500 g/ha, headed Pre-emergence (flood test species), scale 0 to 10 (0 no effect, 10 complete control)
[3] = Rate 1000 g/ha, Pre-emergence (as headed), scale 0 to 10
[4] = Rate 2000 g/ha, Pre-emergence (as headed), scale 0 to 10
[5] = Postemergence, Rate 250 g/ha, scale 0 to 10, 0 no effect, 10 complete control
[6] = Preemergence, Rate 62 g/ha, scale 0 to 10 (0 no effect, 10 complete control)
[7] = Preemergence, Rate 125 g/ha, scale 0 to 10 (0 no effect, 10 complete control)
[8] = Preemergence, Rate 250 g/ha, scale of 0 to 10 where 0 is no effect and 10 is complete control
[9] = Preemergence, Rate 500 g/ha, scale 0 to 10 (0 no effect, 10 complete control)
[10] = Postemergence, Rate 125 g/ha, scale of 0 to 10 where 0 is no effect and 10 is complete control
[11] = Rate 62 g/ha, Postemergence, scale of 0 to 10 where 0 is no effect and 10 is complete control
[12] = Rate 500 g/ha, Postemergence, scale 0 to 10, 0 no effect, 10 complete control
[13] = Preemergence, Rate 125 g/ha, 0 is no effect, 10 is complete control
[14] = Preemergence, scale of 0 to 10 where 0 is no effect and 10 is complete control
[15] = Postemergence, scale 0 to 10, 0 is no effect, 10 is complete control

With CC(C)N(C(=O)n1oc(=O)n(Cc2cccs2)c1=O)c1ccccc1 [Compound 103] the “Ducksalad plant response rating” value (duck salad; [1]) was 0, the “Plant response rating, Ducksalad” value (duck salad; [2]) was 0 and the “Ducksalad plant response rating” value (duck salad; [3]) was 0. For the same compound, the “Ducksalad plant response rating” value (duck salad; [4]) was 0, the “B. signalgrass plant response rating” value (surinam grass; Postemergence, Rate 62 g/ha, scale 0 to 10, 0 is no effect, 10 is complete control) was 0 and the “B. signalgrass plant response rating” value (surinam grass; [5]) was 0. The “B. signalgrass plant response rating” value (surinam grass; [6]) was 1, the “Plant response rating, B. signalgrass” value (surinam grass; [7]) was 5 and the “Plant response rating, B. signalgrass” value (surinam grass; [8]) was 7. The “B. signalgrass plant response rating” value (surinam grass; [9]) was 7, the “B. signalgrass plant response rating” value (surinam grass; Rate 125 g/ha, Postemergence, scale 0 to 10, 0 no effect, 10 complete control) was 0 and the “B. signalgrass plant response rating” value (surinam grass; Rate 500 g/ha, Postemergence, scale of 0 to 10 where 0 is no effect and 10 is complete control) was 2. For the same compound, the “Morningglory plant response rating” value (morningglory; [10]) was 10, the “Morningglory plant response rating” value (morningglory; [5]) was 10 and the “Morningglory plant response rating” value (morningglory; [6]) was 0. The “Plant response rating, Morningglory” value (morningglory; [7]) was 0, the “Plant response rating, Morningglory” value (morningglory; [8]) was 0 and the “Morningglory plant response rating” value (morningglory; [9]) was 0. For the same compound, the “Morningglory plant response rating” value (morningglory; [11]) was 8, the “Morningglory plant response rating” value (morningglory; [12]) was 10 and the “Blackgrass plant response rating” value (blackgrass; [10]) was 1. The “Blackgrass plant response rating” value (blackgrass; [5]) was 4, the “Blackgrass plant response rating” value (blackgrass; [6]) was 0 and the “Plant response rating, Blackgrass” value (blackgrass; [7]) was 0. The “Plant response rating, Blackgrass” value (blackgrass; [8]) was 3, the “Blackgrass plant response rating” value (blackgrass; [9]) was 5 and the “Blackgrass plant response rating” value (blackgrass; [11]) was 0. For the same compound, the “Blackgrass plant response rating” value (blackgrass; [12]) was 4, the “Crabgrass plant response rating” value (crabgrass; [10]) was 4 and the “Crabgrass plant response rating” value (crabgrass; [5]) was 6. For the same compound, the “Crabgrass plant response rating” value (crabgrass; [6]) was 2, the “Plant response rating, Crabgrass” value (crabgrass; [7]) was 6 and the “Plant response rating, Crabgrass” value (crabgrass; [8]) was 9. For the same compound, the “Crabgrass plant response rating” value (crabgrass; [11]) was 0, the “Crabgrass plant response rating” value (crabgrass; [12]) was 9 and the “S. Flatsedge plant response rating” value (smallflower flatsedge; Pre-emergence, Rate 1000 g/ha, scale 0 to 10 (0 no effect, 10 complete control)) was 0. The “S. Flatsedge plant response rating” value (smallflower flatsedge; [1]) was 0, the “Plant response rating, S. Flatsedge” value (smallflower flatsedge; [2]) was 0 and the “S. Flatsedge plant response rating” value (smallflower flatsedge; [4]) was 0. For the same compound, the “Wild oats plant response rating” value (wild oat; [10]) was 0, the “Wild oats plant response rating” value (wild oat; [6]) was 0 and the “Wild oats plant response rating (0 to 10 scale)” value (wild oat; [13]) was 0. The “Plant response rating, Wild oats” value (wild oat; [14]) was 3, the “Wild oats plant response rating” value (wild oat; [9]) was 6 and the “Wild oats plant response rating” value (wild oat; [11]) was 0. The “Plant response rating, Wild oats” value (wild oat; [15]) was 0, the “Wild oats plant response rating” value (wild oat; [12]) was 0 and the “Giant foxtail plant response rating” value (giant foxtail; [10]) was 1. For the same compound, the “Giant foxtail plant response rating” value (giant foxtail; [5]) was 3, the “Giant foxtail plant response rating” value (giant foxtail; [6]) was 8 and the “Plant response rating, Giant foxtail” value (giant foxtail; [7]) was 9. The “Plant response rating, Giant foxtail” value (giant foxtail; [8]) was 9, the “Giant foxtail plant response rating” value (giant foxtail; [9]) was 9 and the “Giant foxtail plant response rating” value (giant foxtail; [11]) was 0. The “Giant foxtail plant response rating” value (giant foxtail; [12]) was 7, the “Barnyardgrass plant response rating” value (bamyardgrass; [1]) was 0 and the “Plant response rating, Barnyardgrass” value (bamyardgrass; [2]) was 0. The “Barnyardgrass plant response rating” value (bamyardgrass; [3]) was 0, the “Barnyardgrass plant response rating” value (bamyardgrass; Rate 2000 g/ha, Pre-emergence (as headed), scale 0 to 10, 0 no effect, 10 complete control) was 0 and the “Cocklebur plant response rating” value (cocklebur; [10]) was 0. The “Cocklebur plant response rating” value (cocklebur; [5]) was 0, the “Cocklebur plant response rating” value (cocklebur; [6]) was 0 and the “Plant response rating, Cocklebur” value (cocklebur; [7]) was 0. The “Cocklebur plant response rating” value (cocklebur; [9]) was 0, the “Cocklebur plant response rating” value (cocklebur; [11]) was 0 and the “Cocklebur plant response rating” value (cocklebur; [12]) was 0. For the same compound, the “Soybean plant response rating” value (soybean; [10]) was 4, the “Soybean plant response rating” value (soybean; [6]) was 0 and the “Plant response rating, Soybean” value (soybean; [7]) was 0. For the same compound, the “Plant response rating, Soybean” value (soybean; [8]) was 0, the “Soybean plant response rating” value (soybean; [9]) was 0 and the “Soybean plant response rating” value (soybean; [11]) was 4. The “Plant response rating, Soybean” value (soybean; Rate 250 g/ha, Postemergence, scale 0 to 10, 0 is no effect, 10 is complete control) was 4, the “Soybean plant response rating” value (soybean; [12]) was 6 and the “Rice plant response rating” value (rice; [1]) was 0. The “Plant response rating, Rice” value (rice; [2]) was 0, the “Rice plant response rating” value (rice; [3]) was 0 and the “Rice plant response rating” value (rice; [4]) was 0. For the same compound, the “Velvetleaf plant response rating” value (velvetleaf; [10]) was 0, the “Velvetleaf plant response rating” value (velvetleaf; [6]) was 0 and the “Velvetleaf plant response rating (0 to 10 scale)” value (velvetleaf; [13]) was 0. The “Plant response rating, Velvetleaf” value (velvetleaf; [14]) was 3, the “Velvetleaf plant response rating” value (velvetleaf; [9]) was 3 and the “Velvetleaf plant response rating” value (velvetleaf; [11]) was 0. For the same compound, the “Plant response rating, Velvetleaf” value (velvetleaf; [15]) was 1, the “Velvetleaf plant response rating” value (velvetleaf; [12]) was 4 and the “Corn plant response rating” value (corn; [10]) was 0. For the same compound, the “Corn plant response rating” value (corn; [5]) was 0, the “Corn plant response rating” value (corn; [6]) was 0 and the “Plant response rating, Corn” value (corn; [7]) was 0. For the same compound, the “Plant response rating, Corn” value (corn; [8]) was 0, the “Corn plant response rating” value (corn; [9]) was 0 and the “Corn plant response rating” value (corn; [11]) was 0. For the same compound, the “Corn plant response rating” value (corn; [12]) was 2, the “Bedstraw plant response rating” value (bedstraw; [5]) was 0 and the “Bedstraw plant response rating” value (bedstraw; [6]) was 0. For the same compound, the “Plant response rating, Bedstraw” value (bedstraw; [7]) was 0, the “Plant response rating, Bedstraw” value (bedstraw; [8]) was 0 and the “Bedstraw plant response rating” value (bedstraw; [9]) was 0. The “Nutsedge plant response rating” value (purple nutsedge; [10]) was 0, the “Nutsedge plant response rating” value (purple nutsedge; [5]) was 0 and the “Nutsedge plant response rating” value (purple nutsedge; [6]) was 0. The “Plant response rating, Nutsedge” value (purple nutsedge; [7]) was 0, the “Plant response rating, Nutsedge” value (purple nutsedge; [8]) was 0 and the “Nutsedge plant response rating” value (purple nutsedge; [9]) was 0. The “Nutsedge plant response rating” value (purple nutsedge; [11]) was 0, the “Nutsedge plant response rating” value (purple nutsedge; [12]) was 0 and the “Wheat plant response rating” value (wheat; [10]) was 0. The “Wheat plant response rating” value (wheat; [6]) was 0, the “Wheat plant response rating (0 to 10 scale)” value (wheat; [13]) was 0 and the “Plant response rating, Wheat” value (wheat; [14]) was 0. For the same compound, the “Wheat plant response rating” value (wheat; [9]) was 2, the “Wheat plant response rating” value (wheat; [11]) was 0 and the “Plant response rating, Wheat” value (wheat; [15]) was 0. For the same compound, the “Wheat plant response rating” value (wheat; [12]) was 0.
